{
  "source": "ChEMBL document CHEMBL4130496",
  "about": "“Anticancer properties of 4-thiazolidinone derivatives depend on peroxisome proliferator-activated receptor gamma (PPARγ)” (2017)",
  "key": {"SCC-15 [1]": {"system": "SCC-15", "experiment": "Cytotoxicity against human SCC15 cells assessed as reduction in cell viability at 50 uM after 24 hrs by resazurin reduction assay relative to control", "assay_type": "functional"}, "SCC-15 [2]": {"system": "SCC-15", "experiment": "Cytotoxicity against human SCC15 cells transfected with PPARalpha siRNA assessed as reduction in cell viability at 50 uM after 24 hrs by resazurin reduction assay", "assay_type": "functional, cell-based"}, "SCC-15 [3]": {"system": "SCC-15", "experiment": "Cytotoxicity against human SCC15 cells transfected with PPARbeta siRNA assessed as reduction in cell viability at 50 uM after 24 hrs by resazurin reduction assay", "assay_type": "functional, cell-based"}, "SCC-15 [4]": {"system": "SCC-15", "experiment": "Downregulation of PPARgamma mRNA expression in human SCC15 cells at 10 uM after 4 hrs by RTqPCR analysis relative to control", "assay_type": "functional"}, "SCC-15 [5]": {"system": "SCC-15", "experiment": "Cytotoxicity against human SCC15 cells assessed as increase in LDH release at 50 uM after 24 hrs by colorimetric assay relative to […]", "assay_type": "functional"}, "SCC-15 [6]": {"system": "SCC-15", "experiment": "Cytotoxicity against human SCC15 cells transfected with PPARalpha siRNA assessed as increase in LDH release at 50 uM after 24 hrs by colorimetric assay", "assay_type": "functional, cell-based"}, "SCC-15 [7]": {"system": "SCC-15", "experiment": "Cytotoxicity against human SCC15 cells transfected with PPARbeta siRNA assessed as increase in LDH release at 50 uM after 24 hrs by colorimetric assay relative to control", "assay_type": "functional, cell-based"}, "SCC-15 [8]": {"system": "SCC-15", "experiment": "Cytotoxicity against human SCC15 cells transfected with PPARgamma siRNA assessed as increase in LDH release at 50 uM after 24 hrs by colorimetric assay relative to control", "assay_type": "functional, cell-based"}, "SCC-15 [9]": {"system": "SCC-15", "experiment": "Cytotoxicity against human SCC15 cells transfected with PPARgamma siRNA assessed as reduction in cell viability at 50 uM after 24 hrs by resazurin reduction assay", "assay_type": "functional"}, "SCC-15 [10]": {"system": "SCC-15", "experiment": "Induction of apoptosis in human SCC15 cells assessed as increase in caspase 3 activity at 50 uM after 24 hrs relative to control", "assay_type": "functional"}, "SCC-15 [11]": {"system": "SCC-15", "experiment": "Induction of apoptosis in human SCC15 cells transfected with PPARgamma siRNA assessed as increase in caspase 3 activity at 50 uM after 24 hrs relative to control", "assay_type": "functional"}, "SCC-15 [12]": {"system": "SCC-15", "experiment": "Downregulation of PPARalpha mRNA expression in human SCC15 cells at 10 uM after 4 hrs by RTqPCR analysis relative to control", "assay_type": "functional"}, "SCC-15 [13]": {"system": "SCC-15", "experiment": "Downregulation of PPARalpha mRNA expression in human SCC15 cells at 50 uM after 4 hrs by RTqPCR analysis relative to control", "assay_type": "functional"}, "SCC-15 [14]": {"system": "SCC-15", "experiment": "Downregulation of PPARbeta mRNA expression in human SCC15 cells at 10 uM after 4 hrs by RTqPCR analysis relative to control", "assay_type": "functional"}, "SCC-15 [15]": {"system": "SCC-15", "experiment": "Downregulation of PPARbeta mRNA expression in human SCC15 cells at 50 uM after 4 hrs by RTqPCR analysis relative to control", "assay_type": "functional"}, "SCC-15 [16]": {"system": "SCC-15", "experiment": "Downregulation of PPARgamma mRNA expression in human SCC15 cells at 50 uM after 4 hrs by RTqPCR analysis relative to control", "assay_type": "functional"}, "SCC-15 [17]": {"system": "SCC-15", "experiment": "Induction of apoptosis in human SCC15 cells transfected with PPARalpha siRNA assessed as increase in caspase 3 activity at 50 uM after 24 hrs relative to control", "assay_type": "functional, cell-based"}, "SCC-15 [18]": {"system": "SCC-15", "experiment": "Induction of apoptosis in human SCC15 cells transfected with PPARbeta siRNA assessed as increase in caspase 3 activity at 50 uM after 24 hrs relative to control", "assay_type": "functional"}},
  "note": "Calls of active or inactive are those of the source. No cut-off for these calls is given here.",
  "data": [
    {"smiles": "CN(CCOc1ccc(CC2SC(=O)NC2=O)cc1)c1ccccn1", "note": "(stereo not given) [ROSIGLITAZONE]", "values": [
      {"measurement": "Activity", "setting": "SCC-15 [1]", "value": "inactive"},
      {"measurement": "Activity", "setting": "SCC-15 [2]", "value": "Active"},
      {"measurement": "Activity", "setting": "SCC-15 [3]", "value": "Active"},
      {"measurement": "Activity", "setting": "SCC-15 [4]", "value": 25.54, "unit": "%"}
    ]},
    {"smiles": "CN(C)c1ccc(C2CC(c3ccccc3)=NN2C2=NC(=O)/C(=C3/C(=O)Nc4ccccc43)S2)cc1", "note": "(stereo not given)", "values": [
      {"measurement": "Activity", "setting": "SCC-15 [5]", "value": 44.97, "unit": "%"},
      {"measurement": "Activity", "setting": "SCC-15 [6]", "value": "Active"},
      {"measurement": "Activity", "setting": "SCC-15 [7]", "value": "inactive"},
      {"measurement": "Activity", "setting": "SCC-15 [8]", "value": "inactive"},
      {"measurement": "Activity", "setting": "SCC-15 [1]", "value": 13.53, "unit": "%"},
      {"measurement": "Activity", "setting": "SCC-15 [9]", "value": "inactive"},
      {"measurement": "Activity", "setting": "SCC-15 [10]", "value": 177.42, "unit": "%"},
      {"measurement": "Activity", "setting": "SCC-15 [11]", "value": "inactive"},
      {"measurement": "Activity", "setting": "SCC-15 [12]", "value": 28.26, "unit": "%"},
      {"measurement": "Activity", "setting": "SCC-15 [13]", "value": 18.66, "unit": "%"},
      {"measurement": "Activity", "setting": "SCC-15 [14]", "value": 31.43, "unit": "%"},
      {"measurement": "Activity", "setting": "SCC-15 [15]", "value": 31.92, "unit": "%"},
      {"measurement": "Activity", "setting": "SCC-15 [4]", "value": 24.79, "unit": "%"},
      {"measurement": "Activity", "setting": "SCC-15 [16]", "value": 15.27, "unit": "%"},
      {"measurement": "Activity", "setting": "SCC-15 [17]", "value": "Active"}
    ]},
    {"smiles": "O=C(Cn1c2c(sc1=O)[C@@H]1c3ccccc3OC[C@H]1CS2)Nc1ccc(Cl)c(Cl)c1", "values": [
      {"measurement": "Activity", "setting": "SCC-15 [5]", "value": 22.95, "unit": "%"},
      {"measurement": "Activity", "setting": "SCC-15 [6]", "value": "Active"},
      {"measurement": "Activity", "setting": "SCC-15 [8]", "value": "inactive"},
      {"measurement": "Activity", "setting": "SCC-15 [1]", "value": 12.08, "unit": "%"},
      {"measurement": "Activity", "setting": "SCC-15 [9]", "value": "inactive"},
      {"measurement": "Activity", "setting": "SCC-15 [12]", "value": 20.63, "unit": "%"},
      {"measurement": "Activity", "setting": "SCC-15 [14]", "value": 31.98, "unit": "%"},
      {"measurement": "Activity", "setting": "SCC-15 [4]", "value": 22.96, "unit": "%"}
    ]},
    {"smiles": "CCc1ccc(CCOc2ccc(CC3SC(=O)NC3=O)cc2)nc1", "note": "(stereo not given) [PIOGLITAZONE]", "values": [
      {"measurement": "Activity", "setting": "SCC-15 [1]", "value": "inactive"},
      {"measurement": "Activity", "setting": "SCC-15 [2]", "value": "Active"},
      {"measurement": "Activity", "setting": "SCC-15 [3]", "value": "Active"},
      {"measurement": "Activity", "setting": "SCC-15 [9]", "value": 31.42, "unit": "%"},
      {"measurement": "Activity", "setting": "SCC-15 [10]", "value": "inactive"},
      {"measurement": "Activity", "setting": "SCC-15 [11]", "value": 43.03, "unit": "%"},
      {"measurement": "Activity", "setting": "SCC-15 [16]", "value": 17.33, "unit": "%"},
      {"measurement": "Activity", "setting": "SCC-15 [18]", "value": ">27.52", "unit": "%"}
    ]},
    {"smiles": "O=C1c2ccccc2C(=O)c2sc3nc(=O)sc-3cc21", "values": [
      {"measurement": "Activity", "setting": "SCC-15 [1]", "value": 18.32, "unit": "%"},
      {"measurement": "Activity", "setting": "SCC-15 [9]", "value": "inactive"},
      {"measurement": "Activity", "setting": "SCC-15 [10]", "value": 43.55, "unit": "%"},
      {"measurement": "Activity", "setting": "SCC-15 [11]", "value": "inactive"},
      {"measurement": "Activity", "setting": "SCC-15 [12]", "value": 54.37, "unit": "%"},
      {"measurement": "Activity", "setting": "SCC-15 [13]", "value": 26.99, "unit": "%"},
      {"measurement": "Activity", "setting": "SCC-15 [14]", "value": 16.62, "unit": "%"},
      {"measurement": "Activity", "setting": "SCC-15 [4]", "value": 45.91, "unit": "%"},
      {"measurement": "Activity", "setting": "SCC-15 [16]", "value": 14.34, "unit": "%"},
      {"measurement": "Activity", "setting": "SCC-15 [17]", "value": "Active"}
    ]}
  ]
}
